Source: patent EP0652008A1 (priority 1993, dated 1995)
Like-named read-outs stand apart in the source and are kept apart here.

Columns and labels:
Francisella tularensis [1] = assay type: in vivo, BALB/c mice; settings: for % SURVIVALS AT DAY 14 POST INFECTION: single dose 1 mg per mouse
Francisella tularensis [2] = assay type: in vivo, BALB/c mice; settings: for % SURVIVALS AT DAY 14 POST INFECTION: single dose
[3] = patients taking both ciprofloxacin and theophylline; many to the toxic range; cited from earlier work
[4] = in vivo; cited from earlier work

Row | SMILES | % SURVIVALS AT DAY 14 POST INFECTION (Francisella tularensis [1]; INTRANSAL pretreatment and infection, 1 day before infection) [%] | % SURVIVALS AT DAY 14 POST INFECTION (Francisella tularensis [1]; INTRANSAL pretreatment and infection, 2 days before infection) [%] | % SURVIVALS AT DAY 14 POST INFECTION (Francisella tularensis [1]; INTRANSAL pretreatment and infection, 3 days before infection) [%] | % SURVIVALS AT DAY 14 POST INFECTION (Francisella tularensis [1]; INTRANSAL pretreatment and infection, 7 days before infection) [%] | % SURVIVALS AT DAY 14 POST INFECTION (Francisella tularensis [1]; INTRAVENOUS pretreatment and infection, 1 day before infection) [%] | % SURVIVALS AT DAY 14 POST INFECTION (Francisella tularensis [1]; INTRAVENOUS pretreatment and infection, 2 days before infection) [%] | % SURVIVALS AT DAY 14 POST INFECTION (Francisella tularensis [1]; INTRAVENOUS pretreatment and infection, 3 days before infection) [%] | % SURVIVALS AT DAY 14 POST INFECTION (Francisella tularensis [1]; INTRAVENOUS pretreatment and infection, 7 days before infection) [%] | protection by single dose before infection (in words) (Francisella tularensis [1]; single dose before infection with 10 LD50) | % SURVIVALS AT DAY 14 POST INFECTION (Francisella tularensis [2]; INTRANSAL infection and treatment, 1 day after infection) [%] | % SURVIVALS AT DAY 14 POST INFECTION (Francisella tularensis [2]; INTRANSAL infection and treatment, 2 days after infection) [%] | % SURVIVALS AT DAY 14 POST INFECTION (Francisella tularensis [2]; INTRANSAL infection and treatment, 3 days after infection) [%] | % SURVIVALS AT DAY 14 POST INFECTION (Francisella tularensis [2]; INTRANSAL infection and treatment, 7 days after infection) [%] | % SURVIVALS AT DAY 14 POST INFECTION (Francisella tularensis [2]; INTRAVENOUS infection and treatment, 1 day after infection) [%] | % SURVIVALS AT DAY 14 POST INFECTION (Francisella tularensis [2]; INTRAVENOUS infection and treatment, 2 days after infection) [%] | % SURVIVALS AT DAY 14 POST INFECTION (Francisella tularensis [2]; INTRAVENOUS infection and treatment, 3 days after infection) [%] | % SURVIVALS AT DAY 14 POST INFECTION (Francisella tularensis [2]; INTRAVENOUS infection and treatment, 7 days after infection) [%] | efficacy in the treatment of infected mice (in words) (Francisella tularensis [2]; single dose at day 1, 2, 3 and 7 post infection) | patients who developed increases of theophylline [3] | bioavailability rates [4]
1 | O=C(O)c1cn(C2CC2)c2cc(N3CCNCC3)c(F)cc2c1=O [Ciprofloxacin, ciprofloxacin] | 0 | 0 | 0 | 12 | 8 | 0 | 12 | 0 | succumbed to 10 LD₅₀ of tularemia in a manner similar to the control untreated mice | 50 | 0 | 25 | 0 | 0 | 25 | 0 | 12 | totally ineffective | 20 of 33 | –
2 | CC1(C)S[C@@H]2[C@H](NC(=O)Cc3ccccc3)C(=O)N2[C@H]1C(=O)O [penicillin G] | – | – | – | – | – | – | – | – | – | – | – | – | – | – | – | – | – | – | – | 45-50%
